Source: paper PMC5242521 (PLoS ONE, 2017)
Where two headings read alike, the source gives them in different places.

Tests used:
OAT1 = molecular target: T1, OAT1 (Homo sapiens, UniProt Q4U2R8); assay: OAT1 activity: fluorescein accumulation in HEK-OAT1 cells; format: cell-based
T1 construct: host or cells: HEK293
T1 sequence (Q4U2R8 1-563): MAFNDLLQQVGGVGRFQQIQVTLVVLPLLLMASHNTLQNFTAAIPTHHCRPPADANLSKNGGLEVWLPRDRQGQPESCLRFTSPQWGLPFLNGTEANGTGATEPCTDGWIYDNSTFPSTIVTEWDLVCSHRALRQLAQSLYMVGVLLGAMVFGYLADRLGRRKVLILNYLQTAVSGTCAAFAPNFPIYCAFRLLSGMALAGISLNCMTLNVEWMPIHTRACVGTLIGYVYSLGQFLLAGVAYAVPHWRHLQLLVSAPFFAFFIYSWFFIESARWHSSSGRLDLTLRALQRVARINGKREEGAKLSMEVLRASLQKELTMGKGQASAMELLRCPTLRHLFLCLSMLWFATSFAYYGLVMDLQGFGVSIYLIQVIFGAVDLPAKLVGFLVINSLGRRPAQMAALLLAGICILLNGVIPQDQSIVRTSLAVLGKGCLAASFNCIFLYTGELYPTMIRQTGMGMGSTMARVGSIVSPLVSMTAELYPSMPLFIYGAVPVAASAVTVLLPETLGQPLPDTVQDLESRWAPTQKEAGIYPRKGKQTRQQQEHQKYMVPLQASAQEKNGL
Method: The effects of pyrethroids on activity of ABC and SLC transporters were determined through measuring cellular accumulation or retention of fluorescent or radiolabeled reference substrates for transporters, in the presence or absence of reference inhibitors, as previously described [41].
The total incubation volume with substrates was 200 μL/well. […] An aliquot of cell lysate (5 μL) was then taken for determining cellular protein content by the Bradford method [44].
Intracellular concentrations of reference substrates were initially expressed as fluorescence arbitrary units (for fluorescent dye substrates) or as moles (for radiolabeled substrates) and normalized to cellular protein content, determined by the Bradford method [44]. They were finally used for calculating percentage of transporter activity, according to the following equations [41, 45]: %ABCtransporter activity=([Substrateref inh]-[Substratepyrethroid])×100/([Substrateref inh]-[Substratecontrol]) (1) %SLC transporter activity=([Substratepyrethroid]-[Substratref inh])×100/([Substratecontrol]-[Substrateref inh]) (2) with [Substratepyrethroid] = cellular concentration of reference substrate in the presence of pyrethroid, [Substrateref inh] = cellular concentration of reference substrate in the presence of reference inhibitor and [Substratecontrol] = cellular concentration of reference substrate in control cells not exposed to pyrethroid or reference inhibitor.

OAT3 = molecular target: T2, OAT3 (Homo sapiens, UniProt Q8TCC7); assay: OAT3 activity: fluorescein accumulation in HEK-OAT3 cells; conditions: for effect on OAT3 activity: pyrethroid 100 μM; for inhibition at 100 μM: human, pH 7.4
T2 sequence (Q8TCC7 1-542): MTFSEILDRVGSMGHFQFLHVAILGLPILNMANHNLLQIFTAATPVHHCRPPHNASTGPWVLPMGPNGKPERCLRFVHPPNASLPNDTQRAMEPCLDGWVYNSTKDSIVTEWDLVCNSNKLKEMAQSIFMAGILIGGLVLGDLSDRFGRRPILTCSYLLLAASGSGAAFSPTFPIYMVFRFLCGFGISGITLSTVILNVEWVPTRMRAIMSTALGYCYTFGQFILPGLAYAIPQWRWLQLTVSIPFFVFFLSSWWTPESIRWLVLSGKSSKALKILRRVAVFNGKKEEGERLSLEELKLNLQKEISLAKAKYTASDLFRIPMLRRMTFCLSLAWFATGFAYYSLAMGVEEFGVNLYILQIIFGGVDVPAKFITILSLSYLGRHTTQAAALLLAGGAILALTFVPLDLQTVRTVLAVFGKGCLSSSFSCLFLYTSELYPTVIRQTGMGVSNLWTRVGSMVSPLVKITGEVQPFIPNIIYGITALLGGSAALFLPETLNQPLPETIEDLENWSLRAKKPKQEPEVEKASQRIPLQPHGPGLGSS
Method: (§1) The effects of pyrethroids on activity of ABC and SLC transporters were determined through measuring cellular accumulation or retention of fluorescent or radiolabeled reference substrates for transporters, in the presence or absence of reference inhibitors, as previously described. The nature of cells and reference substrates and inhibitors used for transport assays are summarized in S3 Table.
(§2) For accumulation assays (performed for all transporters, excepted BCRP), transporter-expressing cells usually cultured in 48-well plates were first incubated at 37°C with reference substrates in the absence (control) or presence of pyrethroids or reference inhibitors, in a well-defined transport assay medium, consisting of 136 mM NaCl, 5.3 mM KCl, 1.1mM KH2PO4, 0.8 mM MgSO4, 1.8 mM CaCl2, 10 mM HEPES, 11 mM D-glucose and adjusted to pH = 7.4 (excepted for MATE transporter assays, for which pH was set to 8.4). The nature of substrates and reference inhibitors and the incubation times with substrates, that varied according to the transporter, were selected in agreement with previous studies and are indicated in S3 Table. The total incubation volume with substrates was 200 μL/well. After washing twice in phosphate-buffered saline (PBS) (200 μL/well/washing), cells were lysed in distilled water (155 μL/well). An aliquot of cell lysate (5 μL) was then taken for determining cellular protein content by the Bradford method. The rest of lysate (150 μL/well) was used for measuring intracellular accumulation of reference substrates by scintillation counting or spectrofluorimetry using a SpectraMax Gemini SX spectrofluorometer (Molecular Devices, Sunnyvale, CA, USA) (excitation and emission wavelengths were 485 and 535 nm, respectively, for rhodamine 123 and fluorescein, and 355 and 460 nm, respectively, for DAPI).
(§3) Intracellular concentrations of reference substrates were initially expressed as fluorescence arbitrary units (for fluorescent dye substrates) or as moles (for radiolabeled substrates) and normalized to cellular protein content, determined by the Bradford method. They were finally used for calculating percentage of transporter activity, according to the following equations [41, 45]: %ABCtransporter activity=([Substrateref inh]-[Substratepyrethroid])×100/([Substrateref inh]-[Substratecontrol]) (1) %SLC transporter activity=([Substratepyrethroid]-[Substratref inh])×100/([Substratecontrol]-[Substrateref inh]) (2) with [Substratepyrethroid] = cellular concentration of reference substrate in the presence of pyrethroid, [Substrateref inh] = cellular concentration of reference substrate in the presence of reference inhibitor and [Substratecontrol] = cellular concentration of reference substrate in control cells not exposed to pyrethroid or reference inhibitor.
(§4) The initial tested concentration of pyrethroids was 100 μM. […] Such concentrations were calculated using GraphPad Prism software (GraphPad Software, La Jolla, CA), through nonlinear regression based on the four parameter logistic function using the following equations: […]

P-gp = P-gp (Homo sapiens, UniProt P08183); assay: P-gp activity: rhodamine 123 accumulation in MCF7R cells; conditions: for inhibition at 100 μM: human, pH 7.4
Method: as §1, §2, §3, §4

MRP2 = molecular target: T3, MRP2 (Homo sapiens, UniProt Q92887); assay: MRP2 activity: CF accumulation in HuH-7 cells; format: cell-based; conditions: for inhibition at 100 μM: human, pH 7.4
T3 construct: multidrug resistance-associated protein (MRP) 2/ABCC2-expressing human hepatoma HuH-7 cells; endogenous in cells; host or cells: HuH-7 human hepatoma cells
Method: The initial tested concentration of pyrethroids was 100 μM.

Sequence of P-gp (P08183 whole entry): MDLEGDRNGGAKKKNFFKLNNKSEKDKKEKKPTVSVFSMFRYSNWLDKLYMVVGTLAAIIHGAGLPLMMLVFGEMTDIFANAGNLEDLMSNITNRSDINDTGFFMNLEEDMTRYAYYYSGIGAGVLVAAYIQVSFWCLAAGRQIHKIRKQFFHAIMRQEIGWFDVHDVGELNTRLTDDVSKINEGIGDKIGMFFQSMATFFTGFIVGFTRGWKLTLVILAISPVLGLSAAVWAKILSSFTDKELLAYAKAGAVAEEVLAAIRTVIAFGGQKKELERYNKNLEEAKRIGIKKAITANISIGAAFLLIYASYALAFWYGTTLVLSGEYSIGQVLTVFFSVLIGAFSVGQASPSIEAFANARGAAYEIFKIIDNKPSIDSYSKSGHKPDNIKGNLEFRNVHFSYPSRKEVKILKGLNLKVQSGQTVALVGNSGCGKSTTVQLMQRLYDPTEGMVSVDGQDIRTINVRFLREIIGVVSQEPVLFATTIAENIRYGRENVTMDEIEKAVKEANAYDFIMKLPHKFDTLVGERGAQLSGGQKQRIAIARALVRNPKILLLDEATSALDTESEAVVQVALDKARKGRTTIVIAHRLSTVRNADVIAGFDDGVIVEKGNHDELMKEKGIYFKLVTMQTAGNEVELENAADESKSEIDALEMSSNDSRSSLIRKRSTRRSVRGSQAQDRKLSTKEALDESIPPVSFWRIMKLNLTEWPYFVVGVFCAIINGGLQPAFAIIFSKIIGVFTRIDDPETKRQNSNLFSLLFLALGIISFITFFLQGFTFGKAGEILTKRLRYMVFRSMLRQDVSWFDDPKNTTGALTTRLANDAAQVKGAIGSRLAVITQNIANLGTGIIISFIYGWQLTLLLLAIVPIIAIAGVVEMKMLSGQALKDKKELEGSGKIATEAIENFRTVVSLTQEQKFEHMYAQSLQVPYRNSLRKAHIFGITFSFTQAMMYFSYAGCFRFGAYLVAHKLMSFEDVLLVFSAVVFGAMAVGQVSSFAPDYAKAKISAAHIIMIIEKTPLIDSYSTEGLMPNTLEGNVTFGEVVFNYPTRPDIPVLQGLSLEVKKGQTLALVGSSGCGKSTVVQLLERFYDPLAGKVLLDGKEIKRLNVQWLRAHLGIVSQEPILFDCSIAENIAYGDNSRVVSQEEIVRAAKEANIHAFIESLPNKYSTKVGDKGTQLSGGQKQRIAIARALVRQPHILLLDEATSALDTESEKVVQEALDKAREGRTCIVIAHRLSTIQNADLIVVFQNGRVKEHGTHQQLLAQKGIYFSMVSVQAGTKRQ
T3 sequence (Q92887 whole entry): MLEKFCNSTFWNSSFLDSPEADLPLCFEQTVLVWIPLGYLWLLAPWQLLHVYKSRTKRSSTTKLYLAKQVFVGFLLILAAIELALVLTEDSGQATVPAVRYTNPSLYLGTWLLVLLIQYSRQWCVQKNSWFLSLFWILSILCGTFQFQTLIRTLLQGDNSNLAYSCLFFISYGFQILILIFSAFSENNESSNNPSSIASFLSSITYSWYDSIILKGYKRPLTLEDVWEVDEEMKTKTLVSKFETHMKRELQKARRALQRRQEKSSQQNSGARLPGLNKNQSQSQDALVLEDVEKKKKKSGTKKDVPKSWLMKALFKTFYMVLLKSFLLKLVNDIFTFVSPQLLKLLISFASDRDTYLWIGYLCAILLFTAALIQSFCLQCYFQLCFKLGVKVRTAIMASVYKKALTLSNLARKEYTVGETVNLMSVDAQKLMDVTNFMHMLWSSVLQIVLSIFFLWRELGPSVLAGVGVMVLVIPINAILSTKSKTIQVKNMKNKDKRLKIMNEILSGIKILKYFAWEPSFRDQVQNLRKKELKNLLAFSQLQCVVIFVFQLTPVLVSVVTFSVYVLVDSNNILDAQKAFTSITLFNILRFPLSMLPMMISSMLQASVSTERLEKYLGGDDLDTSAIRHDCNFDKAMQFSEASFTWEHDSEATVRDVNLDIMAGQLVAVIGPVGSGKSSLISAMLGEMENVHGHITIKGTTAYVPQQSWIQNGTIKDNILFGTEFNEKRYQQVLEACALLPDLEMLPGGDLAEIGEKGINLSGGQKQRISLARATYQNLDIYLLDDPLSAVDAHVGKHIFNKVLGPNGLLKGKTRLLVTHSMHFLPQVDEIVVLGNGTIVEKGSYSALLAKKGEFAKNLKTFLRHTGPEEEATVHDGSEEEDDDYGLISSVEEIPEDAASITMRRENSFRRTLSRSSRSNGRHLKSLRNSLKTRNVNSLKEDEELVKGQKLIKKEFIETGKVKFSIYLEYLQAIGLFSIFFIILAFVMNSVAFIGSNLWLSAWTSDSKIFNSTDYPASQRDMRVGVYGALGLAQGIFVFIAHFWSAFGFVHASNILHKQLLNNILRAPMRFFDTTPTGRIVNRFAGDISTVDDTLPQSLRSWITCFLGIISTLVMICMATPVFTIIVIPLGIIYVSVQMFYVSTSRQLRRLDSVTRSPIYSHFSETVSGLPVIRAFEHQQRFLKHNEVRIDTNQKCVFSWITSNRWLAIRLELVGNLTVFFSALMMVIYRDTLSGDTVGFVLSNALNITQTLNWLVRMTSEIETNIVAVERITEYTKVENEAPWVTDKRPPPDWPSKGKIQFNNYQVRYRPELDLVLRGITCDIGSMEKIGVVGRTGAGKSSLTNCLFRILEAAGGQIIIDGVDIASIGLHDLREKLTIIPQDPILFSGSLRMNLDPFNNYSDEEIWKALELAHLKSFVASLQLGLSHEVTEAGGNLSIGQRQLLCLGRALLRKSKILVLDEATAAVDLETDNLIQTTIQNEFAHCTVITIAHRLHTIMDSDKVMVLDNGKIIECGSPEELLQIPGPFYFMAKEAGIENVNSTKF

Structure (SMILES) | effect on OAT1 activity (OAT1; pyrethroid up to 100 μM) | effect on OAT3 activity (OAT3) | IC50 (P-gp) [µM] | inhibition at 100 μM (P-gp) [%] | IC50 (MRP2) [µM] | inhibition at 100 μM (MRP2) [%] | effect on OAT1 activity (OAT1; pyrethroid up to 100 μM, listed as Allethrin) | IC50 (OAT3) [µM] | inhibition at 100 μM (OAT3) [%] | effect on P-gp activity (P-gp; pyrethroid 100 μM) | inhibition at 100 μM (MRP2; pyrethroid 100 μM, HuH-7 cells, CF, read-out: inhibition of MRP2 activity) [%] | effect on OAT1 activity (OAT1)
C#CCN1CC(=O)N(COC(=O)[C@@H]2C(C=C(C)C)C2(C)C)C1=O (mixture of isomers) [imiprothrin] | failed to alter | inhibited |  |  |  |  |  |  |  |  |  | 
C=CCC1=C(C)C(OC(=O)C2C(C=C(C)C)C2(C)C)CC1=O (centres unmarked) [allethrin] | failed to alter |  | > 100 | 32.7 | 48.2 | 83.8 | No effect (up to 100 μM) | 69.4 | 74.8 |  |  | 
C#CCC1=C(C)C(OC(=O)C2C(C=C(C)C)C2(C)C)CC1=O (centres unmarked) [prallethrin] | failed to alter | inhibited |  |  |  |  |  |  |  |  |  | 
CC(C)=CC1C(C(=O)OCN2C(=O)C3=C(CCCC3)C2=O)C1(C)C (centres unmarked) [tetramethrin] |  |  | > 100 | 24.5 | 65.5 |  |  | 77.6 | 69.3 | moderately inhibited | 58.3 | No effect (up to 100 μM)
